# According to paper PMC5748275, “Novel Aryl Substituted Pyrazoles as Small Molecule Inhibitors of Cytochrome P450 CYP121A1: Synthesis and Antimycobacterial Evaluation” (Journal of Medicinal Chemistry, 2017):
# Target: T1, CYP121A1 (Mycobacterium tuberculosis, UniProt P9WPP7)
# T1 construct: made in house
# Assay type: binding
# Details: heme Soret peak position, ligand-free to apparent saturation
# T1 sequence (P9WPP7 whole entry): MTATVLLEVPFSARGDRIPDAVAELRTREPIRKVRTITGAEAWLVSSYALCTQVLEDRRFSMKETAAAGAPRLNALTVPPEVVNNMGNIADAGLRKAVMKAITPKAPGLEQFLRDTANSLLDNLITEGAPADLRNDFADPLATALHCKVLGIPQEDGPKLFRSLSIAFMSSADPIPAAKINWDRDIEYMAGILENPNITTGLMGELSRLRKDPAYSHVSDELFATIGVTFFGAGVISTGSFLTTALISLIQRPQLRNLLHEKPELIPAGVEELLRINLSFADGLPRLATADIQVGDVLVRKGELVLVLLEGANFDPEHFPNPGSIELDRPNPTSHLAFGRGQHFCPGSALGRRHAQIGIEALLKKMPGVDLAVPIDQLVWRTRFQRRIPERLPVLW
row,SMILES,Soret peak shift
1,"Cc1ccc(-c2nn(-c3ccccc3)cc2Cn2ccnc2)cc1 [7d, 4-((1H-Imidazol-1-yl)methyl)-1-phenyl-3-(p-tolyl)-1H-pyrazole]",416–421.5 nm
2,"c1ccc(-c2nn(-c3ccccc3)cc2Cn2cncn2)cc1 [8a, 1-((1,3-Diphenyl-1H-pyrazol-4-yl)methyl)-1H-[1,2,4]triazole]",416–422 nm
3,"Brc1ccc(-c2nn(-c3ccccc3)cc2Cn2cncn2)cc1 [8f, 1-((3-(4-Bromophenyl)-1-phenyl-1H-pyrazol-4-yl)methyl)-1H-1,2,4-triazole]",416–417.5 nm
4,"Brc1ccc(-c2nn(-c3ccccc3)cc2Cn2ccnc2)cc1 [7f, 4-((1H-Imidazole-1-yl)methyl)-3-(4-bromophenyl)-1-phenyl-1H-pyrazole]",416–420 nm
5,"Cc1ccc(-c2nn(-c3ccccc3)cc2Cn2cncn2)cc1 [8d, 1((1-Phenyl-3-(p-tolyl)-1H-pyrazol-4-yl)methyl)-1H-1,2,4-triazole]",416–418 nm
6,"COc1ccc(-c2nn(-c3ccccc3)cc2Cn2ccnc2)cc1 [7e, 4-((1H-Imidazol-1-yl)methyl)-3-(4-methoxyphenyl)-1-phenyl-1H-pyrazole]",416–421 nm
7,"c1ccc(-c2nn(-c3ccccc3)cc2Cn2ccnc2)cc1 [7a, (1,3-Diphenyl)-4-((1,3-imidazol-1-yl)methyl)-1H-pyrazole]",416–423.5 nm
8,"Fc1ccc(-c2nn(-c3ccccc3)cc2Cn2ccnc2)cc1 [7b, 4-((1H-Imidazol-1-yl)methyl)-3-(4-fluorophenyl)-1-phenyl-1H-pyrazole]",416–423.5 nm
9,"COc1ccc(-c2nn(-c3ccccc3)cc2Cn2cncn2)cc1 [8e, 1-((3-(4-Methoxyphenyl)-1-phenyl-1H-pyrazol-4-yl)methyl)-1H-1,2,4-triazole]",416–420 nm
10,"O=C(NCCn1ccnc1)c1cn(-c2ccccc2)nc1-c1ccc(F)cc1 [13b, N-(2-(1H-Imidazol-1-yl)ethyl)-3-(4-fluorophenyl)-1-phenyl-1H-pyrazole-4-carboxamide]",no binding
11,"Ic1ccc(-c2nn(-c3ccccc3)cc2Cn2ccnc2)cc1 [7g, 4-((1H-Imidazole-1-yl)methyl)-3-(4-iodophenyl)-1-phenyl-1H-pyrazole]",416–422 nm
12,"Ic1ccc(-c2nn(-c3ccccc3)cc2Cn2cncn2)cc1 [8g, 1-((3-(4-Iodophenyl)-1-phenyl-1H-pyrazol-4-yl)methyl)-1H-1,2,4-triazole]",no binding
13,"Clc1ccc(-c2nn(-c3ccccc3)cc2Cn2ccnc2)cc1 [7c, 4-((1H-Imidazol-1-yl)methyl)-3-(4-chlorophenyl)-1-phenyl-1H-pyrazole]",416–422 nm
14,"Clc1ccc(-c2nn(-c3ccccc3)cc2Cn2cncn2)cc1 [8c, 1-((3-(4-Chlorophenyl)-1-phenyl-1H-pyrazole-4-yl)methyl)-1H-1,2,4-triazole]",416–421 nm
15,"N#Cc1ccc(-c2nn(-c3ccccc3)cc2Cn2ccnc2)cc1 [7h, 4-(4-((1H-Imidazol-1-yl)methyl)-1-phenyl-1H-pyrazol-3-yl)benzonitrile]",416–418 nm
16,"Fc1ccc(-c2nn(-c3ccccc3)cc2Cn2cncn2)cc1 [8b, 1-((3-(4-Fluorophenyl)-1-phenyl-1H-pyrazole-4-yl)methyl)-1H-1,2,4-triazole]",416–423 nm
17,N#Cc1ccc(-c2nn(-c3ccccc3)cc2Cn2cncn2)cc1 [8h],no binding
18,"O=C(NCCn1ccnc1)c1cn(-c2ccccc2)nc1-c1ccc(Cl)cc1 [13c, N-(2-(1H-Imidazol-1-yl)ethyl)-3-(4-chlorophenyl)-1-phenyl-1H-pyrazole-4-carboxamide]",no binding
